Data as given in patent publication US9771337B2, “Neprilysin inhibitors” (THERAVANCE BIOPHARMA R&D IP, LLC, priority 2011, dated 2017).

What follows are compounds tested against T1, human NEP (Homo sapiens, UniProt P08473) (assay: In vitro enzyme inhibition assay, inhibitor potency at human NEP). Settings: pKi values at human NEP; recombinant human NEP, fluorogenic peptide substrate 10 μM, 37° C.
T1 construct: purchased R&D Systems, Minneapolis, Minn; 1182-ZN
Assay type: biochemical
Method: The inhibitory activities of compounds at human and rat neprilysin (EC 3.4.24.11; NEP) and human angiotensin converting enzyme (ACE) were determined using in vitro assays as described below.
Recombinant human NEP and recombinant human ACE were obtained commercially (R&D Systems, Minneapolis, Minn., catalog numbers 1182-ZN and 929-ZN, respectively). The fluorogenic peptide substrate Mca-D-Arg-Arg-Leu-Dap-(Dnp)-OH (Medeiros et al. (1997) Braz. J. Med. Biol. Res. 30:1157-62; Anaspec, San Jose, Calif.) and Abz-Phe-Arg-Lys(Dnp)-Pro-OH (Araujo et al. (2000) Biochemistry 39:8519-8525; Bachem, Torrance, Calif.) were used in the NEP and ACE assays respectively.
The assays were performed in 384-well white opaque plates at 37° C. using the fluorogenic peptide substrates at a concentration of 10 μM in Assay Buffer (NEP: 50 mM HEPES, pH 7.5, 100 mM NaCl, 0.01% polyethylene glycol sorbitan monolaurate (Tween-20), 10 μM ZnSO4; ACE: 50 mM HEPES, pH 7.5, 100 mM NaCl, 0.01% Tween-20, 1 μM ZnSO4).
Test compounds were assayed over the range of concentrations from […] to 20 μM. Test compounds were added to the enzymes and incubated for 30 minute at 37° C. prior to initiating the reaction by the addition of substrate. Reactions were terminated after 20 minutes of incubation at 37° C. by the addition of glacial acetic acid to a final concentration of 3.6% (v/v).
Plates were read on a fluorometer with excitation and emission wavelengths set to 320 nm and 405 nm, respectively. Inhibition constants were obtained by nonlinear regression of the data using the equation (GraphPad Software, Inc., San Diego, Calif.): v=v0/[1+(I/K′)] where v is the reaction rate, v0 is the uninhibited reaction rate, I is the inhibitor concentration and K′ is the apparent inhibition constant.
Compounds of the invention were tested in this assay and found to have pKi values at human NEP as follows.

T1 sequence (P08473 whole entry): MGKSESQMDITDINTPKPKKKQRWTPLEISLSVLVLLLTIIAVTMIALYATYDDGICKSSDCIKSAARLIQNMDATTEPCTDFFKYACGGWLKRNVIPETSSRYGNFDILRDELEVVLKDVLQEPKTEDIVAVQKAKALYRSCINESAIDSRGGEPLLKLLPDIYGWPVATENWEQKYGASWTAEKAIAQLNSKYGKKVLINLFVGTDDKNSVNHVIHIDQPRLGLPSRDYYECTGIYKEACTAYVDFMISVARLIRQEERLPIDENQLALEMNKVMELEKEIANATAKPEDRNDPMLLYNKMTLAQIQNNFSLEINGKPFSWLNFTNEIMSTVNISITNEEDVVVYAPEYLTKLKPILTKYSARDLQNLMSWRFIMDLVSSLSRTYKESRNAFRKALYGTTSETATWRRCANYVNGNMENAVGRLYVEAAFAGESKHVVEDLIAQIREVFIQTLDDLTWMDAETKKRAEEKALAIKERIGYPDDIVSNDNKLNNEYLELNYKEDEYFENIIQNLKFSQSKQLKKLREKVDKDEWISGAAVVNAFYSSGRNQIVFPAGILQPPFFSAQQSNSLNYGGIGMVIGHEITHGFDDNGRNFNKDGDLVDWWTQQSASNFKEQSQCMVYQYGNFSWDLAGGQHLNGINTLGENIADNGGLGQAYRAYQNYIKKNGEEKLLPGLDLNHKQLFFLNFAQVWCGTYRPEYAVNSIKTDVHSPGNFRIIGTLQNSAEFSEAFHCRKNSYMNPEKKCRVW

| SMILES | Ki |
| --- | --- |
| CCCc1nc2c(C)cc(C(=O)N[C@H](Cc3ccccc3)[C@@H](O)C(=O)O)cc2n1Cc1cccnc1 [Example 5-3, (2R,3R)-2-Hydroxy-3-[(7-methyl-2-propyl-3-pyridin-3-ylmethyl-3H-benzoimidazole-5-carbonyl)-amino]-4-phenyl-butyric acid] | 12.6 to 100 nM |
| O=C(N[C@H](Cc1ccccc1Cl)[C@@H](O)C(=O)O)c1cn(O)nn1 [Example 2-21, (2R,3R)-4-(2-Chloro-phenyl)-2-hydroxy-3-[(1-hydroxy-1H-[1,2,3]triazole-4-carbonyl)-amino]-butyric acid] | 12.6 to 100 nM |
| O=C(N[C@H](Cc1ccccc1)[C@@H](O)C(=O)O)c1ccnc(-c2ccccc2C(=O)O)c1 [Example 5-22, 2-[4-((1R,2R)-1-Benzyl-2-carboxy-2-hydroxy-ethylcarbamoyl)-pyridin-2-yl]-benzoic acid] | 1.26 to 10 nM |
| Cc1cc(C(=O)N[C@@H](CC(=O)O)Cc2ccccc2Cl)cc2[nH]nnc12 [Example 7-2, (R)-4-(2-Chloro-phenyl)-3-[(7-methyl-3H-benzotriazole-5-carbonyl)-amino]-butyric acid] | 12.6 to 100 nM |
| Cc1cc(C(=O)N[C@H](Cc2ccccc2Cl)[C@H](O)C(=O)O)cc2[nH]nnc12 [Example 2-30, (2S,3R)-4-(2-Chloro-phenyl)-2-hydroxy-3-[(7-methyl-3H-benzotriazole-5-carbonyl)-amino]-butyric acid] | 12.6 to 100 nM |
| O=C(N[C@H](Cc1ccccc1Cl)[C@@H](O)C(=O)O)c1cnc(O)nc1 [Example 2-35, (2R,3R)-4-(2-Chloro-phenyl)-2-hydroxy-3-[(2-hydroxy-pyrimidine-5-carbonyl)-amino]-butyric acid] | ≤ 1 nM |
| O=C(N[C@H](Cc1ccccc1Cl)[C@@H](O)C(=O)O)c1cc(-c2ccccc2Cl)no1 [Example 2-12, (2R,3R)-4-(2-Chloro-phenyl)-3-{[3-(2-chloro-phenyl)-isoxazole-5-carbonyl]-amino}-2-hydroxy-butyric acid] | 1.26 to 10 nM |
| O=C(N[C@H](Cc1ccccc1Cl)[C@@H](O)C(=O)O)c1cncc(-c2ccccc2C(=O)O)c1 [Example 2-5, 2-{5-[(1R,2R)-2-Carboxy-1-(2-chloro-benzyl)-2-hydroxy-ethylcarbamoyl]-pyridin-3-yl}-benzoic acid] | 1.26 to 10 nM |
| O=C(O)C[C@@H](Cc1ccccc1Cl)NC(=O)c1cnc2nn[nH]c2c1 [Example 7-7, (R)-4-(2-Chloro-phenyl)-3-[(1H-[1,2,3]triazolo[4,5-b]pyridine-6-carbonyl)-amino]-butyric acid] | 12.6 to 100 nM |
| O=C(N[C@H](Cc1ccccc1Cl)[C@@H](O)C(=O)O)c1cc(=O)n(Cc2ccc(Cl)cc2F)o1 [Example 2-16, (2R,3R)-3-{[2-(4-Chloro-2-fluoro-benzyl)-3-oxo-2,3-dihydro-isoxazole-5-carbonyl]-amino}-4-(2-chloro-phenyl)-2-hydroxy-butyric acid] | 1.26 to 10 nM |
| O=C(N[C@H](Cc1ccccc1Cl)[C@@H](O)C(=O)O)c1ccnc(-c2ccccc2C(=O)O)c1 [Example 2-2, 2-{4-[(1R,2R)-2-Carboxy-1-(2-chloro-benzyl)-2-hydroxy-ethylcarbamoyl]-pyridin-2-yl}-benzoic acid] | ≤ 1 nM |
| O=C(N[C@H](Cc1ccccc1)[C@@H](O)C(=O)O)c1cnc(-c2ccccc2C(=O)O)cn1 [Example 5-19, 2-[5-((1R,2R)-1-Benzyl-2-carboxy-2-hydroxy-ethylcarbamoyl)-pyrazin-2-yl]-benzoic acid] | 12.6 to 100 nM |
| CCCc1nc2c(C)cc(C(=O)N[C@H](Cc3ccccc3)[C@@H](O)C(=O)O)cc2n1Cc1ccc(Br)nc1 [Example 5-2, (2R,3R)-3-{[3-(6-Bromo-pyridin-3-ylmethyl)-7-methyl-2-propyl-3H-benzoimidazole-5-carbonyl]-amino}-2-hydroxy-4-phenyl-butyric acid] | 12.6 to 100 nM |
| O=C(N[C@H](Cc1ccccc1Cl)[C@@H](O)C(=O)O)c1cnc2[nH]cnc2c1 [Example 2-36, (2R,3R)-4-(2-Chloro-phenyl)-2-hydroxy-3-[(3H-imidazo[4,5-b]pyridine-6-carbonyl)-amino]-butyric acid] | 12.6 to 100 nM |
| O=C(N[C@H](Cc1ccccc1Cl)[C@@H](O)C(=O)O)c1cc2n(n1)CCOc1ccccc1-2 [Example 2-26, (2R,3R)-4-(2-Chloro-phenyl)-3-[(4,5-dihydro-6-oxa-3,3a-diaza-benzo[e]azulene-2-carbonyl)-amino]-2-hydroxy-butyric acid] | 1.26 to 10 nM |
| O=C(N[C@H](Cc1ccccc1Cl)[C@@H](O)C(=O)O)c1cnc(-c2ccccc2C(=O)O)c(F)c1 [Example 2-10, 2-{5-[(1R,2R)-2-Carboxy-1-(2-chloro-benzyl)-2-hydroxy-ethylcarbamoyl]-3-fluoro-pyridin-2-yl}-benzoic acid] | 1.26 to 10 nM |
| O=C(N[C@H](Cc1ccccc1Cl)[C@@H](O)C(=O)O)c1ccc(-c2ccccc2C(=O)O)nc1 [Example 2-8, 2-{5-[(1R,2R)-2-Carboxy-1-(2-chloro-benzyl)-2-hydroxy-ethylcarbamoyl]-pyridin-2-yl}-benzoic acid] | 1.26 to 10 nM |
| CCCc1nc2c(C)cc(C(=O)N[C@H](Cc3ccccc3)[C@@H](O)C(=O)O)cc2n1CC(=O)O [Example 5-5, (2R,3R)-3-[(3-Carboxymethyl-7-methyl-2-propyl-3H-benzoimidazole-5-carbonyl)-amino]-2-hydroxy-4-phenyl-butyric acid] | 12.6 to 100 nM |
| O=C(O)C[C@@H](Cc1ccccc1Cl)NC(=O)c1ccc2nn[nH]c2c1 [Example 7-3, (R)-3-[(3H-Benzotriazole-5-carbonyl)-amino]-4-(2-chloro-phenyl)-butyric acid] | 12.6 to 100 nM |
| O=C(O)C[C@@H](Cc1ccccc1Cl)NC(=O)c1cnn[nH]1 [Example 7-1, (R)-4-(2-Chloro-phenyl)-3-[(3H-[1,2,3]triazole-4-carbonyl)-amino]-butyric acid] | 12.6 to 100 nM |
| O=C(N[C@H](Cc1ccccc1Cl)[C@@H](O)C(=O)O)c1ccc2ncc(Br)n2c1 [Example 2-33, (2R,3R)-3-[(3-Bromo-imidazo[1,2-a]pyridine-6-carbonyl)-amino]-4-(2-chloro-phenyl)-2-hydroxy-butyric acid] | 12.6 to 100 nM |
| O=C(O)C[C@@H](Cc1ccccc1Cl)NC(=O)c1cc(F)c2[nH]nnc2c1 [Example 7-6, (R)-4-(2-Chloro-phenyl)-3-[(7-fluoro-1H-benzotriazole-5-carbonyl)-amino]-butyric acid] | 12.6 to 100 nM |
| COc1ccc(Cn2oc(C(=O)N[C@H](Cc3ccccc3Cl)[C@@H](O)C(=O)O)cc2=O)c(F)c1F [Example 2-17, (2R,3R)-4-(2-Chloro-phenyl)-3-{[2-(2,3-difluoro-4-methoxy-benzyl)-3-oxo-2,3-dihydro-isoxazole-5-carbonyl]-amino}-2-hydroxy-butyric acid] | 1.26 to 10 nM |
| O=C(N[C@H](Cc1ccccc1)[C@@H](O)C(=O)O)c1cnc2nn[nH]c2c1 [Example 5-29, (2R,3R)-2-Hydroxy-4-phenyl-3-[(1H-[1,2,3]triazolo[4,5-b]pyridine-6-carbonyl)-amino]-butyric acid] | 12.6 to 100 nM |
